Test results reported in PMC4154654 (PLoS Neglected Tropical Diseases, 2014).
Several values for one entry are separate records, joined by “and”; a condition that tells them apart may be missing. Equal values may be shown once.

Experiments:
CFTR Cl− channel [1] = target: T1, CFTR Cl− channel (Homo sapiens, UniProt P13569); test: Apical Cl− current analysis of CFTR Cl− channel activity in basolaterally permeabilized T84 cells; assay type: cell-based
[2] = system: cholera toxin (CT)-induced intestinal fluid secretion; details: mouse, in vivo; cited from earlier work
[3] = system: live V. cholerae-induced intestinal fluid secretion; details: mice; ref [17], [38]; cited from earlier work
T84 cell monolayers = test: Barrier function assay (FITC-dextran flux) in T84 cell monolayers; details: 24-h treatment, 3 mM
[4] = target: T2, Na+-K+-Cl− cotransporter (NKCC1) (Homo sapiens, UniProt P55011); test: Thallium (Tl+) influx-based fluorescent assay of NKCC1 activity in T84 cells; assay type: cell-based
T2 sequence (P55011 1-1212): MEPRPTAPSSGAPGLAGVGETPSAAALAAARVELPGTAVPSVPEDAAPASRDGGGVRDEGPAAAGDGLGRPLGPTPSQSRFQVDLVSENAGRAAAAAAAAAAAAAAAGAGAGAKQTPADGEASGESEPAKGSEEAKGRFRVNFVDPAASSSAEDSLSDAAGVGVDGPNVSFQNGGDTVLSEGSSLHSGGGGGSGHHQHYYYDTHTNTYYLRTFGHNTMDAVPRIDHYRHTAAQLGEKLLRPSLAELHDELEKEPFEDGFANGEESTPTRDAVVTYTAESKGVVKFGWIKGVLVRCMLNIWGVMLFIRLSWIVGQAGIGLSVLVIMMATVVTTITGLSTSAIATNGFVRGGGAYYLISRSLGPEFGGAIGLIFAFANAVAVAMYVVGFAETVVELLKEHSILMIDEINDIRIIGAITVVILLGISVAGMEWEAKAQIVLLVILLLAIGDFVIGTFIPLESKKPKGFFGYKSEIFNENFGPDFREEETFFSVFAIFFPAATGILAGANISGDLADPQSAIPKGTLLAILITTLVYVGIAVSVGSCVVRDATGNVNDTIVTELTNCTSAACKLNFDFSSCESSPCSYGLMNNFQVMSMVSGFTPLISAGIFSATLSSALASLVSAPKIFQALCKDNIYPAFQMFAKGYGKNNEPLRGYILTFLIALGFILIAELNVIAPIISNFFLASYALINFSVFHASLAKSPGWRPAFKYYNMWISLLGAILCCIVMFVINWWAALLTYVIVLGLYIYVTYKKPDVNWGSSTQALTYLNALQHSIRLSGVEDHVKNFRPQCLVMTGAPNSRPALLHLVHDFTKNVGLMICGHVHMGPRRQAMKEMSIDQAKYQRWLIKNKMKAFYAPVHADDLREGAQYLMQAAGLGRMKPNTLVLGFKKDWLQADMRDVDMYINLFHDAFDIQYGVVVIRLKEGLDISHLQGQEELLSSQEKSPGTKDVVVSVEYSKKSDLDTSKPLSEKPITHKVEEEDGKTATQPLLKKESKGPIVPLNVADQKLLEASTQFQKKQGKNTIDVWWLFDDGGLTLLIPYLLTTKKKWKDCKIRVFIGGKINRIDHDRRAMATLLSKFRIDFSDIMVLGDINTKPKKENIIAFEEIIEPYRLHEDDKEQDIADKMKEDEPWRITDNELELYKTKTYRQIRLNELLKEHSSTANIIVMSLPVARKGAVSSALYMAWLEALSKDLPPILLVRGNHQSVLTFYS

[5] = target: cAMP-activated basolateral K+ channels (KCNQ1/KCNE3) (Homo sapiens, UniProt P51787); details: T84 cells, 30 µM
Chain of cAMP-activated basolateral K+ channels (KCNQ1/KCNE3) (Q9Y6H6 whole entry): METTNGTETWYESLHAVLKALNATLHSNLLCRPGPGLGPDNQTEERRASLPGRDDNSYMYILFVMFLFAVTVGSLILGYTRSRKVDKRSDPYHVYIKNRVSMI
Chain of cAMP-activated basolateral K+ channels (KCNQ1/KCNE3) (P51787 whole entry): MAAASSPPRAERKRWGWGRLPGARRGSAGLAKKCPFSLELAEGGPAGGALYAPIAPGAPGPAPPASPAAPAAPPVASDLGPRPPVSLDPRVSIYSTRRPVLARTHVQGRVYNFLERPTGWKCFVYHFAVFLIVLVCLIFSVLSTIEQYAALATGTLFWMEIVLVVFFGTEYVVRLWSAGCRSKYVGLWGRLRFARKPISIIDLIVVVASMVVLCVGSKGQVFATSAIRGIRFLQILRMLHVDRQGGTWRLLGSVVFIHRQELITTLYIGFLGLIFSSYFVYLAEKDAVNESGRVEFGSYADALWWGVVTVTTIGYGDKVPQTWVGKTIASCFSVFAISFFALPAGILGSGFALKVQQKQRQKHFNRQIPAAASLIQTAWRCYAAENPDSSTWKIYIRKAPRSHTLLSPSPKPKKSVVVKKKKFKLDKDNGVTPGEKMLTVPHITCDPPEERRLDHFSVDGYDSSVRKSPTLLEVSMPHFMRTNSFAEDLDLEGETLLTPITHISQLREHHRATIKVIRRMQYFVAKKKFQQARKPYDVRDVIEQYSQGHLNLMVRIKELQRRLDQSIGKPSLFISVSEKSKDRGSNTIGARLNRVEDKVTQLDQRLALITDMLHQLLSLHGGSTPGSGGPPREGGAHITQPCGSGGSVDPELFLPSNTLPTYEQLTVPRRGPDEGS

CFTR Cl− channel [6] = target: T1, CFTR Cl− channel; test: Apical Cl− current analysis of CFTR Cl− channel activity in Calu-3 cells; assay type: cell-based; details: CPT-cAMP
[7] = system: intracellular cAMP levels in T84 cells; test: Intracellular cAMP measurement (cAMP immunoassay) in T84 cells; assay type: cell-based, human; details: 200 µM, 1 h, basal and forskolin-stimulated (20 µM) conditions
Procedure: Intracellular cAMP levels in T84 cells were measured using cAMP immunoassays (R&D Systems, Minneapolis, Minnesota, USA). T84 cells were seeded on 24-well plates at a density of 10^6 cells/well and grown for 24 h in a humidified 5% CO2/[…] incubator at 37°C. […] Thereafter, cells were lysed with cell lysis buffer and level of intracellular cAMP was measured according to the manufacturer's instructions.
Data are expressed as means ± S.E.M. NS, non-statistical difference (n = 3).

Na+-K+ ATPase = Na+-K+ ATPase activity (ouabain-sensitive short-circuit current) in T84 cells; assay type: cell-based, human; details: pretreatment 200 µM
Procedure: After stabilization of the amphotericin B-induced rise in Isc, ouabain (1 mM) was added into the basolateral solution and the values of ouabain-sensitive current were used to represent the activity of Na^+-K^+ ATPases.
In this method, apical membrane was permeabilized by amphotericin B (250 µg/ml) and a K^+ gradient ([K^+]apical>[K^+]basolateral) was established using asymmetrical K^+ buffers in the presence of ouabain in basolateral solutions (to prevent current generated by Na^+-K^+ ATPases) (Fig. 5A, inset). The basolateral K^+ current elicited by an addition of cell-permeable cAMP (e.g. CPT-cAMP) would, therefore, reflect the activity of cAMP-activated K^+ channels located in the basolateral membrane of T84 cells (i.e. KCNQ1/KCNE3 K^+ channels). […] In this protocol, intracellular Na^+ loading by amphotericin B-induced permeabilization of apical membrane stimulated Na^+-K^+ ATPase activity, resulting in an increase in Isc (Fig. 5B, inset). […]
Na^+-K^+ ATPase activity was estimated from values of ouabain-sensitive short-circuit current, which was induced by intracellular Na^+ loading following amphotericin B (250 µg/ml)-induced apical membrane permeabilization. […] Summary of data is expressed as means of ouabain-sensitive short-circuit current ± S.E.M. (n = 6–8).

[8] = system: phosphorylated Ca2+/calmodulin-dependent protein kinase II (CaMKII); test: Immunoblot analysis of ATP-induced CaMKII phosphorylation in T84 cells; assay type: cell-based, human; details: 20 min, ATP 100 µM plus diclofenac 20 µM
Procedure: Proteins were extracted using lysis buffers containing (pH 7.4) 1% Triton X-100, 50 mM Tris-HCl, 150 mM NaCl, 1 mM EDTA, 1 mM NaF, 1 mM Na3VO4, 1 mM PMSF and protease inhibitor (PI) cocktail. Protein concentration was determined using a Lowry method. Equal amounts of proteins were loaded on sodium dodecyl sulfate polyacrylamide gel electrophoresis and transferred to a nitrocellulose membrane. […] The secondary antibodies were horseradish peroxidase-conjugated anti-rabbit IgG antibodies. The immunoblot was visualized using a chemiluminescence detection method.

[9] = target: Ca2+-activated basolateral K+ channels (KCa3.1) (Homo sapiens, UniProt O15554); test: Basolateral K+ current analysis of ATP-stimulated Ca2+-activated basolateral K+ channels in T84 cells; assay type: cell-based; details: BaCl2 5 mM, ATP 100 µM
Chain of Ca2+-activated basolateral K+ channels (KCa3.1) (O15554 whole entry): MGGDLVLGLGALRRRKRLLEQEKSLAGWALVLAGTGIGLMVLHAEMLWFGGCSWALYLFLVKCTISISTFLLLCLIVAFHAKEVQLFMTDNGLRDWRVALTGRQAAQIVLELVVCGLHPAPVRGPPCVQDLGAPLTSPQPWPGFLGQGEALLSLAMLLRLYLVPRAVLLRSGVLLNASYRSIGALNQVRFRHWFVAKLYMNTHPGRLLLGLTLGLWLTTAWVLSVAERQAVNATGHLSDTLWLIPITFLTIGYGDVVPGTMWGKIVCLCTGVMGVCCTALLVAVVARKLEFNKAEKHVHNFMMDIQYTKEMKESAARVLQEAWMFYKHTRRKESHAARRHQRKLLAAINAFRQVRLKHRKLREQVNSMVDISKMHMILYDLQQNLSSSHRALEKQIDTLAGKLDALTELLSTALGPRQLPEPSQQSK
Procedure: High K^+ apical solution contained (pH 7.3) 142.5 mM K-gluconate, 1.25 mM CaCl2, 0.40 mM MgSO4, 0.43 mM […], 0.35 mM Na2HPO4, 10 mM Na-HEPES and 5.6 mM glucose. In low K^+ basolateral solution, concentration of K-gluconate was reduced to 5.4 mM and 136.9 mM N-methyl-glucamine was added. Before basolateral K^+ current measurements, apical membrane of T84 cells was permeabilized by amphotericin B (250 µg/ml) and ouabain (1 mM) was added into basolateral solution to prevent current contributed by Na^+-K^+ ATPase.

[10] = system: cholera toxin (CT)-induced Cl− secretion in T84 cells; test: cells; assay type: cell-based; details: Homo sapiens
[11] = system: forskolin-induced Cl− secretion in mouse intestinal sheets
[12] = system: CT-induced intestinal fluid secretion; test: Mouse closed-loop model of cholera induced by CT; assay type: in vivo; details: mice, 30 mg/kg intraperitoneal, CT 1 µg/loop, 4 h, loop weight/length ratio
[13] = system: V. cholerae-induced intestinal fluid secretion; test: Mouse closed-loop model of cholera induced by V. cholerae; assay type: in vivo; details: mice, 30 mg/kg intraperitoneal, 10^7 CFU/loop, 12 h, loop weight/length ratio
T84 cells = test: MTT assay of T84 cell viability; details: 24-h exposure, 10 µM to 200 µM
[14] = system: Ca2+-activated Cl− channel (CaCC); test: Apical Cl− current analysis of ATP-stimulated CaCC in T84 cells
[15] = system: inwardly rectifying Cl− channel (IRC); test: Apical Cl− current analysis of forskolin-stimulated IRC in T84 cells

T1 sequence (P13569 whole entry): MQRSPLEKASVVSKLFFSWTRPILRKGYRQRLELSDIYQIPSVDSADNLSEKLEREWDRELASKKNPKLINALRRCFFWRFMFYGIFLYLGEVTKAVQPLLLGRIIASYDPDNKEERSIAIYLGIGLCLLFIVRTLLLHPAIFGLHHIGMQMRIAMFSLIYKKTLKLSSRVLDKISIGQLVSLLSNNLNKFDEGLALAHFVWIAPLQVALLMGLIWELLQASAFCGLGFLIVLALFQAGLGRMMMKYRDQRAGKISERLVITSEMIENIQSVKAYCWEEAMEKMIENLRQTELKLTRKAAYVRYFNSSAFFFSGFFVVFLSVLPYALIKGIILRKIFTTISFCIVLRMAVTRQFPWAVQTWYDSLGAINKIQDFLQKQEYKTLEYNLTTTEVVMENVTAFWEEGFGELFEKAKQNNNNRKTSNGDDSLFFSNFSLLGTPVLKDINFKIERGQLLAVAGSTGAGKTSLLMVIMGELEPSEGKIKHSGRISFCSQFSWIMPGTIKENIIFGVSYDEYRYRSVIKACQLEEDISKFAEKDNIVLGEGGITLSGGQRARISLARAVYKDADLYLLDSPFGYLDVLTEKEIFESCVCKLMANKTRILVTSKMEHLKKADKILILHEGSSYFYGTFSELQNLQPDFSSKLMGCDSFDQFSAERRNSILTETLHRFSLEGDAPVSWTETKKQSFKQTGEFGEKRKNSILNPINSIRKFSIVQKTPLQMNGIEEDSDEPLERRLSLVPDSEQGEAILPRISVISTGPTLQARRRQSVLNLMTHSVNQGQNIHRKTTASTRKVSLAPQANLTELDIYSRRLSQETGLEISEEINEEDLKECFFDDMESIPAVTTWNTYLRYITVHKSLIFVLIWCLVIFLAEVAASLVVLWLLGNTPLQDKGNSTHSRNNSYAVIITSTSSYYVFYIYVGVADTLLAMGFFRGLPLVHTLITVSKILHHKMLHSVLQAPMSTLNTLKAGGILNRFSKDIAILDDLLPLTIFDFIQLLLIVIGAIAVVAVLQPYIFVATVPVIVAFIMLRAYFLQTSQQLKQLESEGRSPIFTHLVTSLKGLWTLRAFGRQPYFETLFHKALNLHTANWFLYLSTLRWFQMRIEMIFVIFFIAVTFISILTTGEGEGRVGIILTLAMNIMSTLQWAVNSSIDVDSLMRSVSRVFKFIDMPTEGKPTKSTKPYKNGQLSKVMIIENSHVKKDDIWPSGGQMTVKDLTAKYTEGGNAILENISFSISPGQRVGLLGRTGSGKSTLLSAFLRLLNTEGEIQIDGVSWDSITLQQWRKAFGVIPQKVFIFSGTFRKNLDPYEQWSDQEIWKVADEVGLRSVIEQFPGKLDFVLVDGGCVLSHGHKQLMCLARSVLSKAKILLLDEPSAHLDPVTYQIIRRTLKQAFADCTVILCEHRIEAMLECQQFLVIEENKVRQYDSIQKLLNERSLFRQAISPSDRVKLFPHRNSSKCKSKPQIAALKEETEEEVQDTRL

O=C(O)c1ccc(/C=C2\SC(=S)N(c3cccc(C(F)(F)F)c3)C2=O)cc1 [CFTRinh-172]
effect on recovered apical Cl− current after washout (CFTR Cl− channel [1]; forskolin, CFTRinh-172 5 µM apical): inhibited
reduction of cholera toxin (CT)-induced intestinal fluid secretion [2]: > 90%
reduction of live V. cholerae-induced intestinal fluid secretion [3]: > 90%

O=C(O)CN(CCOCCOCCN(CC(=O)O)CC(=O)O)CC(=O)O [EGTA]
effect on FITC-dextran flux, positive control (T84 cell monolayers): markedly increased

CCCCNc1cc(C(=O)O)cc(S(N)(=O)=O)c1Oc1ccccc1 [bumetanide]
effect on Tl+ influx (NKCC1 activity), positive control ([4]; 100 µM): completely prevented

Clc1ccccc1C(c1ccccc1)(c1ccccc1)n1ccnc1 [clotrimazole]
effect on CPT-cAMP-induced basolateral K+ current [5]: markedly inhibited

O=C(O)Cc1ccccc1Nc1c(Cl)cccc1Cl [diclofenac]
reversibility of inhibition of CFTR-mediated apical Cl− current (CFTR Cl− channel [1]; 20 µM, after removal from bathing solutions): reversible
IC50 (CFTR Cl− channel [1]; CPT-cAMP 100 µM, read-out: IC50, inhibition of apical Cl− current induced by CPT-cAMP): 8.5 µM
potency of inhibition of forskolin-induced Cl− current in the presence of IBMX (CFTR Cl− channel [1]; IBMX (PDE inhibitor) vs forskolin control): not different from that of control
potency of inhibition of apical Cl− current after pretreatment with MK571, compound C or Na2VO3 (CFTR Cl− channel [1]; MRP4, AMPK or protein phosphatase inhibitor): did not alter the potency
IC50 (CFTR Cl− channel [1]; apical Cl− current, regardless of the mechanisms of CFTR activation, read-out: IC50, inhibition of CFTR Cl− channel activity (summary)): ~10 µM and 8 to 10 µM
IC50 (CFTR Cl− channel [1]; forskolin 20 µM, read-out: IC50, inhibition of apical Cl− current induced by forskolin): 8 µM
inhibition of CFTR-mediated apical Cl− current at 100 µM (CFTR Cl− channel [1]; forskolin, CPT-cAMP or genistein, 100 µM): almost complete inhibition
IC50 (CFTR Cl− channel [1]; genistein 20 µM, read-out: IC50, inhibition of apical Cl− current induced by genistein): 10 µM
inhibition of CFTR-mediated apical Cl− current at 100 µM (CFTR Cl− channel [6]): near complete inhibition
IC50 (CFTR Cl− channel [6]; 100 µM, read-out: IC50, inhibition of CFTR-mediated apical Cl− current induced by CPT-cAMP): ~10 µM
effect on intracellular cAMP levels [7]: virtually no effect
effect on ouabain-sensitive Isc (Na+-K+ ATPase activity) (Na+-K+ ATPase): no effect
effect on Tl+ influx (NKCC1 activity) ([4]; pretreatment 200 µM): no effect
effect on ATP-induced CaMKII phosphorylation [8]: unaffected
inhibition of basolateral K+ current induced by ATP at 200 µM [9]: near complete inhibition
IC50 ([10]; T84, read-out: IC50, inhibition of cholera toxin (CT)-induced Cl− secretion): ~10 µM
inhibition at 100 µM ([10]; T84, read-out: inhibition of CT-induced Cl− secretion at 100 µM): > 95%
effect on forskolin-induced Cl− secretion in mouse intestinal sheets [11]: inhibited
inhibition of CT-induced intestinal fluid secretion [12]: ~70%
inhibition of V. cholerae-induced intestinal fluid secretion [13]: ~70%
effect on T84 cell viability (MTT) (T84 cells): did not affect
inhibition of CaCC-mediated apical Cl− current at 20 µM ([14]; 20 µM): almost complete inhibition
IC50 ([14]; read-out: IC50, inhibition of CaCC-mediated apical Cl− current, CFTRinh-172 pretreatment, ATP 100 µM): ~1 µM
inhibition of IRC-mediated apical Cl− current at 100 µM ([15]; 100 µM): near complete inhibition
IC50 ([15]; read-out: IC50, inhibition of IRC-mediated apical Cl− current, CFTRinh-172 pretreatment, forskolin 20 µM): ~5 µM
